We go through 2 molecules from PMC5329948, “Caspase vinyl sulfone small molecule inhibitors prevent axonal degeneration in human neurons and reverse cognitive impairment in Caspase-6-overexpressing mice” (Molecular Neurodegeneration, 2017).

For the experiment, the system named is APPWT-transfected primary human CNS neurons. Put plainly: Neuritic beading/degeneration in APPWT-transfected primary human neurons. It is filed as cell-based. Conditions: for neuritic beading: APPWT/EGFP co-expression, 48 h; for neuritic beading / percentage of beaded neurons, fold of EGFP-alone: NWL 100 μM, Z-VEID-fmk 5 μM; for percentage of beaded neurons, fold of EGFP-alone: live imaging 72 h, APPWT vehicle 1.52, EGFP-alone 1.00, mean ± SEM. As to the method:
Immunofluorescence on human neuron cultures: Primary human neurons were pre-treated 2 h and serum-deprived in the presence of 100 μM NWL-117, 100 μM NWL-154, or 5 μM Z-VEID-fmk (Biomol, Plymouth meeting, PA, USA) for 24 h. Following treatment, human neurons were washed once with warm PBS, fixed for 20 min at room temperature with 4% paraformaldehyde (Sigma, Oakville, ON, CA)/4% sucrose (BioRad, Mississauga, ON, CA) for TubΔCasp6 or 2% formaldehyde (Thermo Fisher Scientific, Waltham, MA, USA)/0.2% glutaraldehyde (Sigma, Oakville, ON, CA) for pBudEGFP or pBudEGFP/APP^WT-transfected neurons, incubated in permeabilization buffer (0.1% Triton X-100, 0.1 sodium citrate) for 1 min on ice, washed with PBS, blocked for 20 min at room temperature with 10% goat serum (Sigma, Oakville, ON, CA), and incubated with primary antibodies diluted in 10% goat serum in PBS overnight at 4 °C in a humid chamber. The glass coverslips were washed with PBS, and incubated with goat anti-rabbit secondary antibody coupled to Alexa 488 (Molecular Probes, Eugene, OR, USA) or Cy3 (GE Healthcare Life Sciences, Baie D’Urfe, QC, CA) and Hoechst 33342 (ImmunoChemistry, Bloomington, MN, USA) at 1 μg/mL for 2 h at room temperature. The coverslips were washed with PBS and rinsed in Milli-Q water before mounting in fluoromount (Dako, Burlington, ON, CA). Images were acquired by fluorescence microscopy and quantified using the ImageJ software (NIH, Bethesda, MD, USA) for TubΔCasp6 and manually counted for transfected EGFP(+)-neurons. Time lapse-imaging by live fluorescence microscopy: Primary human neurons were transfected with gold beads coated with pBudEGFP or pBudEGFP/APP^WT using a Helios Gene gun (BioRad, Mississauga, ON, CA). Briefly, cells were pre-treated with 100 μM NWL inhibitors or 5 μM Z-VEID-fmk for 2 h. The media was removed and the neurons were shot at 100 psi. The media was quickly replaced with the inhibitors present. The plasmid was expressed for 16 h before setting up the fluorescence microscope (Nikon Eclipse Ti) to acquire 20 images per condition every hour for 72 h at 37 °C with 5% CO2. The images were analyzed by counting the total number of neurons (50–100 neurons per condition per independent experiment), and the number of beaded, swollen soma, and healthy neurons. In addition, the time at which cells beaded was noted. Phase contrast microscopy: HCT116 cells, plated at a density of 1×10^5 cells/well and human neurons, plated at a density of 6×10^6 cells/well on poly-L-lysine were treated with PBS, 100 μM NWL-117, 100 μM NWL-154, or 2 μM staurosporine (Biomol, Plymouth meeting, PA, USA) for 24 h. Images were acquired with the Nikon Eclipse Ti microscope and the NIS-Elements (Version 3.10) software.

Where [1] appears, read: APPWT-transfected neurons, live imaging, 100 μM.

With `CCC(C)[C@H](NC(=O)[C@H](CCC(=O)O)NC(=O)[C@@H](NC(=O)OCc1ccccc1)C(C)C)C(=O)N[C@H](/C=C/S(C)(=O)=O)CC(=O)O` (stereo partly drawn) [NWL-117], the neuritic beading entry is listed as “prevented neuritic beading” and the “percentage of beaded neurons, fold of EGFP-alone” value amounted to 0.84 fold. Moreover, under setting [1], the neuronal soma rounding result was “inhibited” and the “neuronal survival (neurons with homogeneously distributed EGFP)” value was “significantly increases neuronal survival”.

Consider `CCC(C)[C@H](NC(=O)[C@H](CCC(=O)O)NC(=O)[C@@H](NC(=O)OCc1ccccc1)C(C)C)C(=O)N[C@H](/C=C(\Cl)S(C)(=O)=O)CC(=O)O` (stereo partly drawn) [NWL-154], for which the neuritic beading result is recorded as “prevented neuritic beading” and the “percentage of beaded neurons, fold of EGFP-alone” value amounted to 1.07 fold.
